Source: patent US7883889B2, “Antigen presenting cells, method for their preparation and their use for cancer vaccines” (priority 2001, dated 2011)

Experiments:
[1] = tested on: B-EBV+ lymphoblastoid cell lines; assay: RT-PCR analysis of CTA expressed by ADHAPI-Cells/B-EBV and control B-EBV cells; assay type: cell-based, human; conditions: 5-AZA-CdR: four pulses of 1 μM every 12 h, then 48 h culture (= ADHAPI-Cells/B-EBV)
Method: B-EBV+ lymphoblastoid cell lines (7.5×10^5 cells/ml) were cultured in RPMI 1640 medium supplemented with 10% heat-inactivated foetal calf serum (or 10% heat-inactivated human AB serum) and 2 mM L-glutamine at 37° C. in a 5% CO2 humidified atmosphere, and pulsed four times with 1 μM 5-aza-2′-deoxycytidine (5-AZA-CdR) every 12 h; then, half of the culture medium was replaced with fresh medium and cultures were allowed to proceed for additional 48 h. Then cells were utilized for experimental procedures and/or frozen under viable conditions. Control cells (B-EBV cells) were cultured under similar experimental conditions but without pulses of 5-AZA-CdR.
Experimental conditions and primers utilized to assess CTA expression on investigated cells were as follows: […]

[2] = tested on: PWM-activated B-Lymphocytes; assay: RT-PCR analysis of CTA expressed by ADHAPI-Cells/PWM-B and control PWM-B cells; assay type: cell-based, human; conditions: 5-AZA-CdR: four pulses of 1 μM every 12 h, then 48 h culture (= ADHAPI-Cells/PWM-B)
Method: (§1) Experimental conditions and primers utilized to assess CTA expression on investigated cells were as follows:
Purified B-Lymphocytes (1.5×10^6 cells/ml) were added with PWM (3 μg/ml) and cultured for 48 h at 37° C. in a 5% CO2 humidified atmosphere in Basal Iscove's medium supplemented with 10% heat-inactivated human AB serum, 2 mM L-glutamine, 100 U/ml penicillin, 100 μg/ml streptomycin sulphate.
(§2) PWM-activated B-Lymphocytes were pulsed four times with 1 μM 5-aza-2′-deoxycytidine (5-AZA-CdR) every 12 h; then, half of the culture medium was replaced with fresh medium and cultures were allowed to proceed for additional 48 h. Then cells were utilized for experimental procedures and/or frozen under viable conditions. Control cells (PWM-B) were cultured under similar experimental conditions but without pulses of 5-AZA-CdR.

[3] = tested on: NIH3T3-CD40L-activated PBMC; assay: RT-PCR analysis of CTA expressed by ADHAPI-Cells/CD40L-B and control CD40L-B cells; assay type: cell-based, human; conditions: 5-AZA-CdR: four pulses of 1 μM every 12 h, restimulation with NIH3T3-CD40L, then 48 h (= ADHAPI-Cells/CD40L-B)
Method: as §1
PBMC (2×10^6 cells/ml) were co-cultured with semiconfluent, x-ray treated (75 Gy) NIH3T3-CD40L at 37° C. in a 5% CO2 humidified atmosphere, in Basal Iscove's medium supplemented with 10% heat-inactivated human AB serum, 2 mM L-glutamine, 2 ng/ml recombinant human (rh) interleukin 4 (rhIL-4), 50 μg/ml human transferrin, 5 μg/ml rh insulin, 5.5×10^−7 M cyclosporin A (CsA), 100 U/ml penicillin, and 100 μg/ml streptomycin sulphate (complete medium). After six days of incubation, PBMC were collected, washed twice with HBSS, resuspended at 1×10^6 cells/ml in complete medium and co-cultured for additional 3 days at 37° C. in a 5% CO2 humidified atmosphere with NIH3T3-CD40L freshly prepared as described above. This procedure was repeated every 2-3 days to a maximum culture time of 16-18 days.
After 16-18 days of culture, activated PBMC were harvested and restimulated with NIH3T3-CD40L as described above; after an O/N incubation at 37° C. in a 5% CO2 humidified atmosphere, cultures were pulsed four times with 1 μM 5-aza-2′-deoxycytidine (5-AZA-CdR) every 12 h; then, cells were harvested and restimulated with NIH3T3-CD40L as described above and cultures were allowed to proceed for additional 48 h. Then cells were utilized for experimental procedures and/or frozen under viable conditions. Control cells (CD40L-B cells) were cultured under similar experimental conditions but without pulses of 5-AZA-CdR.

PWM-activated PBMC = assay: RT-PCR analysis of CTA expressed by ADHAPI-Cells/PWM-PBMC and control PWM-PBMC cells; assay type: cell-based, human; conditions: 5-AZA-CdR: four pulses of 1 μM every 12 h, then 48 h culture (= ADHAPI-Cells/PWM-PBMC)
Method: as §1
PBMC (1.5×10^6 cells/ml) were added with PWM (3 μg/ml) and cultured for 48 h at 37° C. in a 5% CO2 humidified atmosphere in Basal Iscove's medium supplemented with 10% heat-inactivated human AB serum, 2 mM L-glutamine, 100 U/ml penicillin, 100 μg/ml streptomycin sulphate.
as §2, with “PBMC” for “B-Lymphocytes”, “(PWM-PBMC)” for “(PWM-B)”

PHA-activated PBMC = assay: RT-PCR analysis of CTA expressed by ADHAPI-Cells/PHA-PBMC and control PHA-PBMC; assay type: cell-based, human; conditions: 5-AZA-CdR: four pulses of 1 μM every 12 h, then 48 h culture (= ADHAPI-Cells/PHA-PBMC)
Method: as §1
PBMC (1.5×10^6 cells/ml) were added with PHA-M (10 μg/ml) and 100 UI/ml rhIL-2, and cultured for 48 h at 37° C. in a 5% CO2 humidified atmosphere in RPMI 1640 medium supplemented with 10% heat-inactivated foetal calf serum (or in Basal Iscove's medium supplemented with 10% heat-inactivated human AB serum), 2 mM L-glutamine, 100 U/ml penicillin, 100 μg/ml streptomycin sulphate (complete medium).
(§3) PHA-activated PBMC were pulsed four times with 1 μM 5-aza-2′-deoxycytidine (5-AZA-CdR) every 12 h; then, half of the culture medium was replaced with fresh complete medium without PHA-M and cultures were allowed to proceed for additional 48 h. Then cells were utilized for experimental procedures and/or frozen under viable conditions. Control cells (PHA-PBMC) were cultured under similar experimental conditions but without pulses of 5-AZA-CdR.

PHA+PWM-activated PBMC = assay: RT-PCR analysis of CTA expressed by ADHAPI-Cells/PHA+PWM-PBMC and control PHA+PWM-PBMC; assay type: cell-based, human; conditions: 5-AZA-CdR: four pulses of 1 μM every 12 h, then 48 h culture (= ADHAPI-Cells/PHA+PWM-PBMC)
Method: as §1
PBMC (1.5×10^6 cells/ml) were added with PHA-M (10 μg/ml), PWM (3 μg/ml), 100 UI/ml rhIL-2 and cultured for 48 h at 37° C. in a 5% CO2 humidified atmosphere in Basal Iscove's medium supplemented with 10% heat-inactivated human AB serum (or with 10% heat-inactivated autologous serum), 2 mM L-glutamine, 100 U/ml penicillin, 100 μg/ml streptomycin sulphate (complete medium).
as §3, with “PHA+PWM-activated” for “PHA-activated”, “PHA or PWM” for “PHA-M”, “(PHA+PWM-PBMC)” for “(PHA-PBMC)”

[4] = tested on: normal and malignant lymphoid cells; conditions: Shichijo S. et al Jpn. J. Cancer Res. 87, 751-756, 1996; cited from earlier work

With `Nc1ncn([C@H]2C[C@H](O)[C@@H](CO)O2)c(=O)n1` [5-AZA-CdR, 5-aza-2′-deoxycytidine] the “GAGE-1-6 expression (RT-PCR)” value [1] was 4/4, the “MAGE-1 expression (RT-PCR)” value [1] was 4/4 and the “MAGE-3 expression (RT-PCR)” value [1] was 4/4. The “NY-ESO-1 expression (RT-PCR)” value [1] was 4/4, the “SSX-2 expression (RT-PCR)” value [1] was 4/4 and the “GAGE-1-6 expression (RT-PCR)” value [2] was 4/4. For the same compound, the “MAGE-1 expression (RT-PCR)” value [2] was 4/4, the “MAGE-2 expression (RT-PCR)” value [2] was 4/4 and the “MAGE-3 expression (RT-PCR)” value [2] was 4/4. For the same compound, the “MAGE-4 expression (RT-PCR)” value [2] was 4/4, the “NY-ESO-1 expression (RT-PCR)” value [2] was 4/4 and the “SSX-2 expression (RT-PCR)” value [2] was 4/4. The “GAGE-1-6 expression (RT-PCR)” value [3] was 14/14, the “MAGE-1 expression (RT-PCR)” value [3] was 10/10 and the “MAGE-2 expression (RT-PCR)” value [3] was 9/10. For the same compound, the “MAGE-3 expression (RT-PCR)” value [3] was 10/11, the “MAGE-4 expression (RT-PCR)” value [3] was 11/11 and the “NY-ESO-1 expression (RT-PCR)” value [3] was 14/14. The “SSX-2 expression (RT-PCR)” value [3] was 13/14, the “GAGE-1-6 expression (RT-PCR)” value (PWM-activated PBMC) was 3/4 and the “MAGE-1 expression (RT-PCR)” value (PWM-activated PBMC) was 4/4. For the same compound, the “MAGE-2 expression (RT-PCR)” value (PWM-activated PBMC) was 3/4, the “MAGE-3 expression (RT-PCR)” value (PWM-activated PBMC) was 4/4 and the “MAGE-4 expression (RT-PCR)” value (PWM-activated PBMC) was 3/4. The “NY-ESO-1 expression (RT-PCR)” value (PWM-activated PBMC) was 4/4, the “SSX-2 expression (RT-PCR)” value (PWM-activated PBMC) was 3/4 and the “GAGE-1-6 expression (RT-PCR)” value (PHA-activated PBMC) was 4/4. The “MAGE-1 expression (RT-PCR)” value (PHA-activated PBMC) was 12/12, the “MAGE-2 expression (RT-PCR)” value (PHA-activated PBMC) was 3/3 and the “MAGE-3 expression (RT-PCR)” value (PHA-activated PBMC) was 12/12. The “MAGE-4 expression (RT-PCR)” value (PHA-activated PBMC) was 4/4, the “NY-ESO-1 expression (RT-PCR)” value (PHA-activated PBMC) was 6/6 and the “SSX-2 expression (RT-PCR)” value (PHA-activated PBMC) was 6/6. The “GAGE-1-6 expression (RT-PCR)” value (PHA+PWM-activated PBMC) was 7/7, the “MAGE-1 expression (RT-PCR)” value (PHA+PWM-activated PBMC) was 7/7 and the “MAGE-2 expression (RT-PCR)” value (PHA+PWM-activated PBMC) was 7/7. The “MAGE-3 expression (RT-PCR)” value (PHA+PWM-activated PBMC) was 7/7, the “MAGE-4 expression (RT-PCR)” value (PHA+PWM-activated PBMC) was 7/7 and the “NY-ESO-1 expression (RT-PCR)” value (PHA+PWM-activated PBMC) was 7/7. For the same compound, the “SSX-2 expression (RT-PCR)” value (PHA+PWM-activated PBMC) was 7/7 and the “induction of MAGE 1, 2, 3 and 6” value [4] was “induction of investigated CTA in selected samples tested”.
